Reference: patent US12570642B2, “GLP-IR modulating compounds” (Gilead Sciences, Inc., priority 2021, dated 2026)

Target: GLP-1R (Homo sapiens, UniProt P43220)
Assay: GLP-1R Activation - cAMP Assay
Format: cell-based
Details: cAMP increase in CHO cells stably expressing GLP-1R; each compound run on one of the two cAMP assays (Assay 1 or Assay 2, not specified)
Method: GLP-1R Activation—cAMP Assay 1
GLP-1R activation by compounds of the present disclosure were quantified by measuring cAMP increase in CHO cells stably expressing GLP-1R (MultiSpan product #C1267-1a). The cells were harvested and plated in growth medium (DMEM/F-12 (Corning product #10-090-CV) supplemented with 10% FBS (HyClone product #SH30071-03), penicillin/streptomycin (Corning product #30-002CI) and 10 μg/ml puromycin (Gibco product #A11138-03)) at 1,000 cells/well in a 384-well plate (Greiner product #781080). The cells were then incubated overnight at 37° C., 5% CO2. The next day, the medium was removed and the cells were washed with DPBS (Corning product #21-031-CM) before adding the assay medium (HBSS, Corning product #21-023-CV) with 20 mM Hepes (Gibco product #15630-080) and 0.1% BSA (Rockland Immunochemicals product #BSA-1000)). Following the medium change, the cells were incubated for 1 hour at 37° C., 5% CO2. The tested GLP-1 compound was added to the cells in a 10-point dose response followed by a 30 minutes incubation at 37° C., 5% CO2. cAMP concentration increase was then detected using Cisbio's cAMP Gs Dynamic Kit (product #62AM4PEC) according to the manufacturer's protocol. The response was plotted against the log of the agonist concentration and fitted to a sigmoidal equation to determine the EC50.

Sequence of GLP-1R (P43220 24-463): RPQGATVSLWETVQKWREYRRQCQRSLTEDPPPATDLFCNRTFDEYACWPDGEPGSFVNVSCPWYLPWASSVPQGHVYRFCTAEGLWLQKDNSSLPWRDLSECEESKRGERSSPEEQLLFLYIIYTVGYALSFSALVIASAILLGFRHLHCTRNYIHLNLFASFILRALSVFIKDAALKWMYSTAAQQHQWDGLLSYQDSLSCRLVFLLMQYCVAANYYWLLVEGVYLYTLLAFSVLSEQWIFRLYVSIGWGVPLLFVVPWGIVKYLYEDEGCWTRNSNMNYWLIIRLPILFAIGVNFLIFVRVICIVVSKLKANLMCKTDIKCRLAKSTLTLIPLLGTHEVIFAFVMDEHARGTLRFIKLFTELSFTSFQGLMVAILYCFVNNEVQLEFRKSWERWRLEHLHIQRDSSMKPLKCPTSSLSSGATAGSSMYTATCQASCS

| EC50 [nM] | Compound |
| --- | --- |
| 0.04 | CO[C@@H]1COCC1n1c(Cc2cc(F)c(-c3cccc(OCc4ccc(C#N)cc4F)n3)cc2F)nc2c(F)cc(C(=O)O)cc21 (single isomer, unassigned) [Example 239] |
| 0.578 | N#Cc1ccc(COc2cccc(-c3cc(F)c(Cc4nc5ccc(C(=O)O)cc5n4[C@H]4COCC45CC5)cc3F)n2)c(F)c1 (single isomer, unassigned) [Example 259] |
| 0.411 | N#Cc1ccc(COc2cccc(-c3cc(F)c(Cc4nc5ccc(C(=O)O)cc5n4[C@@H]4COCC45CC5)cc3F)n2)c(F)c1 (single isomer, unassigned) [Example 260] |
| 4.08 | N#Cc1ccc(COc2cccc(-c3cc(F)c(Cc4nc5ccc(C(=O)O)cc5n4[C@@H]4COC[C@H]4C(F)F)cc3F)n2)c(F)c1 (single isomer, unassigned) [Example 261] |
| 1.07 | N#Cc1ccc(COc2cccc(-c3cc(F)c(Cc4nc5ccc(C(=O)O)cc5n4[C@H]4COC[C@@H]4C(F)F)cc3F)n2)c(F)c1 (single isomer, unassigned) [Example 262] |
| 0.168 | CO[C@@H]1COC[C@@H]1n1c(Cc2cc(F)c(-c3cccc(OCc4ccc(C#N)cc4F)n3)cc2F)nc2ccc(C(=O)O)cc21 (single isomer, unassigned) [Example 275] |
| 0.108 | CO[C@H]1COC[C@H]1n1c(Cc2cc(F)c(-c3cccc(OCc4ccc(C#N)cc4F)n3)cc2F)nc2ccc(C(=O)O)cc21 (single isomer, unassigned) [Example 276] |
| 0.122 | CC1(C)COC[C@H]1n1c(Cc2cc(F)c(-c3cccc(OCc4ncc(Cl)cc4F)n3)cc2F)nc2ccc(C(=O)O)cc21 (single isomer, unassigned) [Example 289A] |
| 0.931 | CC1(C)COC[C@@H]1n1c(Cc2cc(F)c(-c3cccc(OCc4ncc(Cl)cc4F)n3)cc2F)nc2ccc(C(=O)O)cc21 (single isomer, unassigned) [Example 289B] |
| 0.063 | COc1cc(Cl)ncc1COc1cccc(-c2cc(F)c(Cc3nc4ccc(C(=O)O)cc4n3[C@@H]3COCC3(C)C)cc2F)n1 (single isomer, unassigned) [Example 290A] |
| 0.764 | COc1cc(Cl)ncc1COc1cccc(-c2cc(F)c(Cc3nc4ccc(C(=O)O)cc4n3[C@H]3COCC3(C)C)cc2F)n1 (single isomer, unassigned) [Example 290B] |
| 0.064 | CO[C@@]1(C)COC[C@H]1n1c(Cc2cc(F)c(-c3cccc(OCc4ccc(C#N)cc4F)n3)cc2F)nc2ccc(C(=O)O)cc21 (single isomer, unassigned) [Example 311A] |
| 0.159 | CO[C@]1(C)COC[C@@H]1n1c(Cc2cc(F)c(-c3cccc(OCc4ccc(C#N)cc4F)n3)cc2F)nc2ccc(C(=O)O)cc21 (single isomer, unassigned) [Example 311B, 2-[[4-[6-[(4-cyano-2-fluoro-phenyl)methoxy]-2-pyridyl]-2,5-difluoro-phenyl]methyl]-3-[4-methoxy-4-methyl-tetrahydrofuran-3-yl]benzimidazole-5-carboxylic Acid] |
| 0.397 | CO[C@]1(C)COC[C@H]1n1c(Cc2cc(F)c(-c3cccc(OCc4ccc(C#N)cc4F)n3)cc2F)nc2ccc(C(=O)O)cc21 (single isomer, unassigned) [Example 312] |
| 1.14 | CO[C@@]1(C)COC[C@@H]1n1c(Cc2cc(F)c(-c3cccc(OCc4ccc(C#N)cc4F)n3)cc2F)nc2ccc(C(=O)O)cc21 (single isomer, unassigned) [Example 313] |
| 0.574 | CC1(C)COC[C@@H]1n1c(Cc2ccc(-c3cccc(OCc4ccc(C#N)cc4F)n3)cc2F)nc2ccc(C(=O)O)cc21 (single isomer, unassigned) [Example 379] |
| 0.096 | CC1(C)COC[C@@H]1n1c(Cc2ccc(-c3cccc(OCc4ccc(C#N)cc4F)n3)cc2F)nc2ccc(C(=O)O)cc21 (single isomer, unassigned) [Example 380] |
| 0.747 | CC1(C)COC[C@H]1n1c(Cc2cc(F)c(-c3cccc(OCc4ccc(C(F)F)cc4F)n3)cc2F)nc2ccc(C(=O)O)cc21 (single isomer, unassigned) [Example 383A] |
